Measurements published in paper PMC7413254 (Nature Communications, 2020).
Where no end group is shown, it is not given here.

Biological target: T1, PfNT1 (Plasmodium falciparum, UniProt Q8IDM6)
T1 construct: expressed in transfected cells; host or cells: Xenopus laevis oocytes (stage V-VI), cRNA-injected
Assay: [3H]VF-6 transport (efflux) from injected Xenopus oocytes
Type: cell-based
Conditions: trans-inhibition, treatment 45 mM

T1 sequence (Q8IDM6 whole entry): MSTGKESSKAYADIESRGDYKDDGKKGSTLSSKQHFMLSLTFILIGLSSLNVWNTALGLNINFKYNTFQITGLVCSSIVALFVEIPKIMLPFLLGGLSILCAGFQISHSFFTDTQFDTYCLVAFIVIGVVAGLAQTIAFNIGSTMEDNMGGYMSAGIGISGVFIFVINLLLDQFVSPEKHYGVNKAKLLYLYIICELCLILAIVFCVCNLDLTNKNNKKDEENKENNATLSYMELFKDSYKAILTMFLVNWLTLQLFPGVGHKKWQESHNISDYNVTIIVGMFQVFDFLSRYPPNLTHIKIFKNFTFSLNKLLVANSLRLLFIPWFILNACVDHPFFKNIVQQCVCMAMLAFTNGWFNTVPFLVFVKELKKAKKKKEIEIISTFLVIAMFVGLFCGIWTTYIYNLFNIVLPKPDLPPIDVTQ

Row | Substance | [3H]VF-6 transport, PfNT1 (% PfCRT3D7 control) (Experiment 1) | [3H]VF-6 transport, PfNT1 (% PfCRT3D7 control) (Experiment 2) | [3H]VF-6 transport, PfNT1 (% PfCRT3D7 control) (Experiment 3) | [3H]VF-6 transport, PfNT1 (% PfCRT3D7 control) (Experiment 4) | [3H]VF-6 transport, PfNT1 (% PfCRT3D7 control) (Experiment 5)
1 | DPVN [VF-6-derived peptide] | 3.26 | 3.27 | 3.74 | 3.42 | 3.57
2 | DPVNF [VF-6-derived peptide] | 3.26 | 3.36 | 3.25 | 3.79 | 3.25
3 | PVNF [VF-6-derived peptide] | 4.26 | 4.27 | 4.41 | 3.17 | 4.26
4 | VDPVN [VF-6-derived peptide] | 3.27 | 3.32 | 3.39 | 3.68 | 3.32
5 | VDPVNF [VF-6] | 3.58 | 3.28 | 3.22 | 4.26 | 4.11
